Patent US20230279016A1, “Tetrahydropyrazolopyrimidines and Related Analogs for Inhibiting YAP/TAZ-TEAD” (THE KATHOLIEKE UNIVERSITEIT LEUVEN, priority 2021, published 2023)

System: YAP/TAZ-TEAD transcription
Test: Reporter gene assay for measuring the inhibition of YAP/TAZ-TEAD transcription (TEAD-responsive element luciferase reporter in Hek293T cells)
Type: cell-based
Conditions: Hek293T cells transiently transfected with TEAD-responsive element luciferase reporter, 24 hours incubation
Description: Hek293T cells are cultured in DMEM supplemented with 10% fetal bovine serum, Sodium pyruvate, Sodium bicarbonate, L-glutamine. The cells are harvested and transiently transfected with TEAD-responsive element luciferase reporter. Transfected cells are plated in 384-wells plate containing pre-diluted compounds. After 24 hours incubation at 37° C./5%CO2, assay plates were cooled down to RT and levelled to an equal volume per well, prior to the addition of 25 uL luciferase substrate SteadyLite (Perkin Elmer)/well. The plate was shaken for 10 min at 600 rpm, centrifuged for 1min at 500 rpm and measured with an Envision reader (PerkinElmer). The amount of relative light units produced by the TEAD reporter is used to calculated percent of inhibition.
The percent of reporter inhibition was calculated in the presence of a positive control inhibitor (100% inhibition) versus a condition with the presence of the vehicle basal activity of the reporter (0% inhibition). The ability of a test compound to inhibit this activity was determined as:
Percentage inhibition=[1-((RLU determined in the presence of vehicle—RLU determined for sample with test compound present) divided by (RLU determined in the presence of vehicle — RLU determined for sample with positive control inhibitor))] * 100
The activities of the example compounds tested are depicted in the table below. The activity ranges A, B and C refer to EC50 values in the reporter gene assay as described as follows: “A”: EC50 <1 μM; “B” : 1 μM≤EC50≤20 μM and “C” : EC50>20 μM, NT=not tested.

EC50 | EC50 (Homo sapiens, HEK-293T, 24 h) | SMILES
< 1000 nM |  | C=CC(=O)NCC1CN(c2ccc(C(F)(F)F)cc2)c2cc(C)nn2C1 (single isomer, unassigned) [Cpd. No. 029-En1, (R)- or (S)-N-((2-methyl-4-(4-(trifluoromethyl)phenyl)-4,5,6,7-tetrahydropyrazolo[1,5-a]pyrimidin-6-yl)methyl)acrylamide]
< 1000 nM |  | C=CC(=O)NCC1CN(c2ccc(C(F)(F)F)cc2)c2cc(C)nn2C1 (single isomer, unassigned) [Cpd. No. 029-En2, (R)- or (S)-N-((2-methyl-4-(4-(trifluoromethyl)phenyl)-4,5,6,7-tetrahydropyrazolo[1,5-a]pyrimidin-6-yl)methyl)acrylamide]
< 1000 nM |  | C=CC(=O)NCC1CN(c2ccc(OC(F)(F)F)cc2)c2cc(C)nn2C1 (single isomer, unassigned) [Cpd. No. 030-En1, (R)- or (S)-N-((2-methyl-4-(4-(trifluoromethoxy)phenyl)-4,5,6,7-tetrahydropyrazolo[1,5-a]pyrimidin-6-yl)methyl)acrylamide]
< 1000 nM |  | C=CC(=O)NCC1CN(c2ccc(OC(F)(F)F)cc2)c2cc(C)nn2C1 (single isomer, unassigned) [Cpd. No. 030-En2, (R)- or (S)-N-((2-methyl-4-(4-(trifluoromethoxy)phenyl)-4,5,6,7-tetrahydropyrazolo[1,5-a]pyrimidin-6-yl)methyl)acrylamide]
< 1000 nM |  | C=CC(=O)NCC1CN(c2ccc(C(F)(F)F)cc2)c2cc(C3CC3)nn2C1 (single isomer, unassigned) [Cpd. No. 031-En1, (R)- or (S)-N-((2-cyclopropyl-4-(4-(trifluoromethyl)phenyl)-4,5,6,7-tetrahydropyrazolo[1,5-a]pyrimidin-6-yl)methyl)acrylamide]
< 1000 nM |  | C=CC(=O)NCC1CN(c2ccc(C(F)(F)F)cc2)c2cc(C3CC3)nn2C1 (single isomer, unassigned) [Cpd. No. 031-En2, (R)- or (S)-N-((2-cyclopropyl-4-(4-(trifluoromethyl)phenyl)-4,5,6,7-tetrahydropyrazolo[1,5-a]pyrimidin-6-yl)methyl)acrylamide]
< 1000 nM |  | C=CC(=O)NCC1CN(c2ccc(C(F)(F)F)cc2)c2cc(CC3CC3)nn2C1 (single isomer, unassigned) [Cpd. No. 032-En1, (R)- or (S)-N-((2-(cyclopropylmethyl)-4-(4-(trifluoromethyl)phenyl)-4,5,6,7-tetrahydropyrazolo[1,5-a]pyrimidin-6-yl)methyl)acrylamide]
< 1000 nM |  | C=CC(=O)NCC1CN(c2ccc(C(F)(F)F)cc2)c2cc(CC3CC3)nn2C1 (single isomer, unassigned) [Cpd. No. 032-En2, (R)- or (S)-N-((2-(cyclopropylmethyl)-4-(4-(trifluoromethyl)phenyl)-4,5,6,7-tetrahydropyrazolo[1,5-a]pyrimidin-6-yl)methyl)acrylamide]
1000 to 20000 nM |  | C=CC(=O)NCC1CN(c2ccc(C(F)(F)F)cc2)c2cc(C#N)nn2C1 (single isomer, unassigned) [Cpd. No. 033-En1, (R)- or (S)-N-((2-cyano-4-(4-(trifluoromethyl)phenyl)-4,5,6,7-tetrahydropyrazolo[1,5-a]pyrimidin-6-yl)methyl)acrylamide]
< 1000 nM |  | C=CC(=O)NCC1CN(c2ccc(C(F)(F)F)cc2)c2cc(C#N)nn2C1 (single isomer, unassigned) [Cpd. No. 033-En2, (R)- or (S)-N-((2-cyano-4-(4-(trifluoromethyl)phenyl)-4,5,6,7-tetrahydropyrazolo[1,5-a]pyrimidin-6-yl)methyl)acrylamide]
< 1000 nM |  | C=CC(=O)NCC1CN(c2ccc(C(F)(F)F)cc2)c2cc(C(F)(F)F)nn2C1 (single isomer, unassigned) [Cpd. No. 034-En1, (R)- or (S)-N-((2-(trifluoromethyl)-4-(4-(trifluoromethyl)phenyl)-4,5,6,7-tetrahydropyrazolo[1,5-a]pyrimidin-6-yl)methyl)acrylamide]
< 1000 nM |  | C=CC(=O)NCC1CN(c2ccc(C(F)(F)F)cc2)c2cc(C(F)(F)F)nn2C1 (single isomer, unassigned) [Cpd. No. 034-En2, (R)- or (S)-N-((2-(trifluoromethyl)-4-(4-(trifluoromethyl)phenyl)-4,5,6,7-tetrahydropyrazolo[1,5-a]pyrimidin-6-yl)methyl)acrylamide]
 | < 1000 nM | C=CC(=O)NCC1CN(c2ccc(OC(F)(F)F)cc2)c2cc(C(F)(F)F)nn2C1 (single isomer, unassigned) [Cpd. No. 035-En1, (R)- or (S)-N-((4-(4-(trifluoromethoxy)phenyl)-2-(trifluoromethyl)-4,5,6,7-tetrahydropyrazolo[1,5-a]pyrimidin-6-yl)methyl)acrylamide]
1000 to 20000 nM |  | C=CC(=O)NCC1CN(C(=O)C2CCCCC2)c2ccnn2C1 (single isomer, unassigned) [Cpd. No. 046-En1, (R)- or (S)-N-((4-(cyclohexanecarbonyl)-4,5,6,7-tetrahydropyrazolo[1,5-a]pyrimidin-6-yl)methyl)acrylamide]
1000 to 20000 nM |  | C=CC(=O)NCC1CN(C(=O)C2CCCCC2)c2ccnn2C1 (single isomer, unassigned) [Cpd. No. 046-En2, (R)- or (S)-N-((4-(cyclohexanecarbonyl)-4,5,6,7-tetrahydropyrazolo[1,5-a]pyrimidin-6-yl)methyl)acrylamide]
 | < 1000 nM | C=CC(=O)NCC1CN(Cc2ccccc2)c2ccnn2C1 (single isomer, unassigned) [Cpd. No. 049-En2, (R)- or (S)-N-((4-benzyl-4,5,6,7-tetrahydropyrazolo[1,5-a]pyrimidin-6-yl)methyl)acrylamide]
< 1000 nM |  | C=CC(=O)NC1CN(c2ccc(C(F)(F)F)cc2)c2ccnn2C1 (single isomer, unassigned) [Cpd. No. 061-En1, (R)- or (S)-N-(4-(4-(trifluoromethyl)phenyl)-4,5,6,7-tetrahydropyrazolo[1,5-a]pyrimidin-6-yl)acrylamide]
< 1000 nM |  | C=CC(=O)NC1CN(c2ccc(C(F)(F)F)cc2)c2ccnn2C1 (single isomer, unassigned) [Cpd. No. 061-En2, (R)- or (S)-N-(4-(4-(trifluoromethyl)phenyl)-4,5,6,7-tetrahydropyrazolo[1,5-a]pyrimidin-6-yl)acrylamide]
< 1000 nM |  | C=CC(=O)NC1CN(c2ccc(C(F)(F)F)cc2F)c2ccnn2C1 (single isomer, unassigned) [Cpd. No. 065-En2, (R)- or (S)-N-(4-(2-fluoro-4-(trifluoromethyl)phenyl)-4,5,6,7-tetrahydropyrazolo[1,5-a]pyrimidin-6-yl)acrylamide]
< 1000 nM |  | C=CC(=O)N1CCC2(C1)CN(c1ccc(C(F)(F)F)cc1)c1ccnn1C2 (single isomer, unassigned) [Cpd. No. 088-En1, (R)- or (S)-1-(4-(4-(trifluoromethyl)phenyl)-4,5-dihydro-7H-spiro[pyrazolo[1,5-a]pyrimidine-6,3′-pyrrolidin]-1′-yl)prop-2-en-1-one]
< 1000 nM |  | C=CC(=O)N1CCC2(C1)CN(c1ccc(C(F)(F)F)cc1)c1ccnn1C2 (single isomer, unassigned) [Cpd. No. 088-En2, (R)- or (S)-1-(4-(4-(trifluoromethyl)phenyl)-4,5-dihydro-7H-spiro[pyrazolo[1,5-a]pyrimidine-6,3′-pyrrolidin]-1′-yl)prop-2-en-1-one]
 | > 20000 nM | CS(=O)(=O)N1CCC2(CN(c3ccc(C(F)(F)F)cc3)c3ccnn3C2)C1=O (single isomer, unassigned) [Cpd. No. 089-En1, (R)- or (S)-1′-(methylsulfonyl)-4-(4-(trifluoromethyl)phenyl)-4,5-dihydro-7H-spiro[pyrazolo[1,5-a]pyrimidine-6,3′-pyrrolidin]-2′-one]
> 20000 nM |  | CS(=O)(=O)N1CCC2(CN(c3ccc(C(F)(F)F)cc3)c3ccnn3C2)C1=O (single isomer, unassigned) [Cpd. No. 089-En2, (R)- or (S)-1′-(methylsulfonyl)-4-(4-(trifluoromethyl)phenyl)-4,5-dihydro-7H-spiro[pyrazolo[1,5-a]pyrimidine-6,3′-pyrrolidin]-2′-one]
 | > 20000 nM | CN1CCC2(CN(c3ccc(C(F)(F)F)cc3)c3ccnn3C2)C1=O (single isomer, unassigned) [Cpd. No. 090-En1, (R)- or (S)-1′-methyl-4-(4-(trifluoromethyl)phenyl)-4,5-dihydro-7H-spiro[pyrazolo[1,5-a]pyrimidine-6,3′-pyrrolidin]-2′-one]
> 20000 nM |  | CN1CCC2(CN(c3ccc(C(F)(F)F)cc3)c3ccnn3C2)C1=O (single isomer, unassigned) [Cpd. No. 090-En2, (R)- or (S)-1′-methyl-4-(4-(trifluoromethyl)phenyl)-4,5-dihydro-7H-spiro[pyrazolo[1,5-a]pyrimidine-6,3′-pyrrolidin]-2′-one]
< 1000 nM |  | C=CC(=O)NCC1CN(c2ccc(C(F)(F)F)cc2)c2cnc(C(F)(F)F)n2C1 (single isomer, unassigned) [Cpd. No. 094-En1, (R)- or (S)-N-((6-(trifluoromethyl)-1-(4-(trifluoromethyl)phenyl)-1,2,3,4-tetrahydroimidazo[1,5-a]pyrimidin-3-yl)methyl)acrylamide]
